In patent publication US12723063B2, “GIPR-agonist compounds” (Eli Lilly and Company, priority 2019, dated 2026):
*1 amine or outer side, *2 acyl side, *3 side chain or, on linkers, in order; H or OH if unused. Where a SMILES comes first, the peptide text is derived from it. Side-chain parts run from the residue outwards. [ ]: non-standard residue; d: D form. The star is where a group is joined. C20 diacid = O=C(O)CCCCCCCCCCCCCCCCCCC(=O)*; γGlu = O=C(O)[C@H](CCC(=O)[*:2])N[*:1]; αMeF = C[C@](N)(Cc1ccccc1)C(=O)O; 4Pal = N[C@@H](Cc1ccncc1)C(=O)O; αMeL = CC(C)C[C@](C)(N)C(=O)O; AEEA = NCCOCCOCC(=O)O; Aib = CC(C)(N)C(=O)O

Tests used:
human GIPR = target: T1, human GIPR (Homo sapiens, UniProt P48546); assay: [125I]-GIP binding, SPA with WGA beads, 0.1% bacitracin; details: geometric mean, read-out: hGIPR Ki
T1 construct: expressed in transfected cells; crude membranes
T1 sequence (P48546 22-466): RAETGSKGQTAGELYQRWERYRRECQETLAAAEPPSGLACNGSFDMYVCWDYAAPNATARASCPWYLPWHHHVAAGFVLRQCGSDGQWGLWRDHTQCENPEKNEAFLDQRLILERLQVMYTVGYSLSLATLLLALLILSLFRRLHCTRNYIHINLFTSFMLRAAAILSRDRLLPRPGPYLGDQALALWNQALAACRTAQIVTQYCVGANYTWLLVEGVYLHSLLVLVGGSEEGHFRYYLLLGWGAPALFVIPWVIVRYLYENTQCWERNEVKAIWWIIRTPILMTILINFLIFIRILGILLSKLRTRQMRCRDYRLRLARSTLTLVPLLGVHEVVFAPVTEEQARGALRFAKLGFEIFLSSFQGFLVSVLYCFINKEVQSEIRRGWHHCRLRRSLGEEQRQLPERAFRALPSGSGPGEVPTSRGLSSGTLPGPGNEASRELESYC
Procedure, shortened: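 Ki values are geometric means (SEM, n independent days), derived from four-parameter nonlinear regression of IC50. Membranes came from hGIPR-expressing CHO cells.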

human GLP-1R = target: T2, human GLP-1R (Homo sapiens, UniProt P43220); assay: [125I]-GLP-1 binding, SPA with WGA beads, 0.1% bacitracin; details: geometric mean, read-out: hGLP1R Ki
T2 construct: expressed in transfected cells; crude membranes
T2 sequence (P43220 24-463): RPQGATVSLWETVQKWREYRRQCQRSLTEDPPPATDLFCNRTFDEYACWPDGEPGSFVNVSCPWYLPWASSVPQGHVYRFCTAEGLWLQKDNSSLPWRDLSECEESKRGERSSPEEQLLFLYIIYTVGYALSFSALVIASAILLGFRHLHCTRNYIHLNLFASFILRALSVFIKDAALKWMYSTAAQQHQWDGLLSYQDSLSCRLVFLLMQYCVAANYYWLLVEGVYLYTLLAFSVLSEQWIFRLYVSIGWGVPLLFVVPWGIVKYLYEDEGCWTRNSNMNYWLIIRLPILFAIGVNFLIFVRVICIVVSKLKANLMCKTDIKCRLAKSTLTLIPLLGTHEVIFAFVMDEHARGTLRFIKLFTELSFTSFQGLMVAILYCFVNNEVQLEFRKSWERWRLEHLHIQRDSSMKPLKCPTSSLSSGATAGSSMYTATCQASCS
Procedure, shortened: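 Binding buffer was 25 mM HEPES pH 7.4 with 2.5 mM CaCl2, 1 mM MgCl2, 0.1% (w/v) bacitracin, 0.003% Tween-20 and EDTA-free protease inhibitors. Four-parameter regression gave IC50, converted to Ki (geometric mean, SEM, n independent days).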

SMILES | Ki (human GIPR) | Ki (human GLP-1R)
CC[C@H](C)[C@H](NC(=O)[C@H](CO)NC(=O)[C@H](Cc1ccc(O)cc1)NC(=O)[C@H](CC(=O)O)NC(=O)[C@H](CO)NC(=O)[C@@H](NC(=O)[C@](C)(Cc1ccccc1)NC(=O)[C@@H](NC(=O)CNC(=O)[C@H](CCC(=O)O)NC(=O)C(C)(C)NC(=O)[C@@H](N)Cc1ccc(O)cc1)[C@@H](C)O)[C@@H](C)CC)C(=O)N[C@@](C)(CC(C)C)C(=O)N[C@@H](CC(C)C)C(=O)N[C@@H](CC(=O)O)C(=O)N[C@@H](CCCCN)C(=O)N[C@@H](CCCCNC(=O)COCCOCCNC(=O)COCCOCCNC(=O)CC[C@H](NC(=O)CCCCCCCCCCCCCCCCCCC(=O)O)C(=O)O)C(=O)N[C@@H](Cc1c[nH]cn1)C(=O)N[C@@H](CCC(N)=O)C(=O)NC(C)(C)C(=O)N[C@@H](CCC(=O)O)C(=O)N[C@@H](Cc1ccccc1)C(=O)N[C@H](C(=O)N[C@@H](CCC(=O)O)C(=O)N[C@@H](Cc1ccncc1)C(=O)N[C@@H](CC(C)C)C(=O)N[C@@H](CC(C)C)C(=O)N[C@@H](C)C(=O)N[C@@H](CCC(N)=O)C(=O)NCC(=O)N1CCC[C@H]1C(=O)N[C@@H](CO)C(=O)N[C@@H](CO)C(=O)NCC(=O)N[C@@H](C)C(=O)N1CCC[C@H]1C(=O)N1CCC[C@H]1C(=O)N1CCC[C@H]1C(=O)N[C@@H](CO)C(N)=O)C(C)C [Example 60] (H-Y[Aib]EGT[αMeF]ISDYSI[αMeL]LDKK([AEEA-AEEA-γGlu-C20 diacid])HQ[Aib]EFVE[4Pal]LLAQGPSSGAPPPS-NH2) | 0.039 nM | 51.4 nM
CC[C@H](C)[C@H](NC(=O)[C@H](Cc1ccccc1)NC(=O)[C@@H](NC(=O)CNC(=O)[C@H](CCC(=O)O)NC(=O)C(C)(C)NC(=O)[C@@H](N)Cc1ccc(O)cc1)[C@@H](C)O)C(=O)N[C@@H](CO)C(=O)N[C@@H](CC(=O)O)C(=O)N[C@@H](Cc1ccc(O)cc1)C(=O)N[C@@H](CO)C(=O)N[C@H](C(=O)N[C@@](C)(CC(C)C)C(=O)N[C@@H](CC(C)C)C(=O)N[C@@H](CC(=O)O)C(=O)N[C@@H](CCCCN)C(=O)N[C@@H](CCCCNC(=O)COCCOCCNC(=O)COCCOCCNC(=O)CC[C@H](NC(=O)CCCCCCCCCCCCCCCCCCC(=O)O)C(=O)O)C(=O)N[C@@H](Cc1c[nH]cn1)C(=O)N[C@@H](CCC(N)=O)C(=O)NC(C)(C)C(=O)N[C@@H](CC(=O)O)C(=O)N[C@@H](Cc1ccccc1)C(=O)N[C@H](C(=O)N[C@@H](CCC(=O)O)C(=O)N[C@@H](Cc1ccc(O)cc1)C(=O)N[C@@H](CC(C)C)C(=O)N[C@@H](CC(C)C)C(=O)N[C@@H](CCC(=O)O)C(=O)N[C@H](C(=O)NCC(=O)N1CCC[C@H]1C(=O)N[C@@H](CO)C(=O)N[C@@H](CO)C(=O)NCC(=O)N[C@@H](C)C(=O)N1CCC[C@H]1C(=O)N1CCC[C@H]1C(=O)N1CCC[C@H]1C(=O)N[C@@H](CO)C(N)=O)[C@@H](C)O)C(C)C)[C@@H](C)CC [Example 66] (H-Y[Aib]EGTFISDYSI[αMeL]LDKK([AEEA-AEEA-γGlu-C20 diacid])HQ[Aib]DFVEYLLETGPSSGAPPPS-NH2) | 0.0866 nM | 326 nM
CC[C@H](C)[C@H](NC(=O)[C@H](CC(C)C)NC(=O)[C@@H](NC(=O)CNC(=O)[C@H](CCC(=O)O)NC(=O)C(C)(C)NC(=O)[C@@H](N)Cc1ccc(O)cc1)[C@@H](C)O)C(=O)N[C@@H](CO)C(=O)N[C@@H](CC(=O)O)C(=O)N[C@@H](Cc1ccc(O)cc1)C(=O)N[C@@H](CO)C(=O)N[C@H](C(=O)N[C@@](C)(CC(C)C)C(=O)N[C@@H](CC(C)C)C(=O)N[C@@H](CC(=O)O)C(=O)N[C@@H](CCCCN)C(=O)N[C@@H](CCCCNC(=O)COCCOCCNC(=O)COCCOCCNC(=O)CC[C@H](NC(=O)CCCCCCCCCCCCCCCCCCC(=O)O)C(=O)O)C(=O)N[C@@H](Cc1c[nH]cn1)C(=O)N[C@@H](CCC(N)=O)C(=O)NC(C)(C)C(=O)N[C@@H](CCC(=O)O)C(=O)N[C@@H](Cc1ccccc1)C(=O)N[C@H](C(=O)N[C@@H](CCC(=O)O)C(=O)N[C@@H](Cc1ccc(O)cc1)C(=O)N[C@@H](CC(C)C)C(=O)N[C@@H](CC(C)C)C(=O)N[C@@H](CCC(=O)O)C(=O)N[C@H](C(=O)NCC(=O)N1CCC[C@H]1C(=O)N[C@@H](CO)C(=O)N[C@@H](CO)C(=O)NCC(=O)N[C@@H](C)C(=O)N1CCC[C@H]1C(=O)N1CCC[C@H]1C(=O)N1CCC[C@H]1C(=O)N[C@@H](CO)C(N)=O)[C@@H](C)O)C(C)C)[C@@H](C)CC [Example 72] (H-Y[Aib]EGTLISDYSI[αMeL]LDKK([AEEA-AEEA-γGlu-C20 diacid])HQ[Aib]EFVEYLLETGPSSGAPPPS-NH2) | 0.0594 nM | 437 nM
CC[C@H](C)[C@H](NC(=O)[C@H](Cc1ccccc1)NC(=O)[C@@H](NC(=O)CNC(=O)[C@H](CCC(=O)O)NC(=O)C(C)(C)NC(=O)[C@@H](N)Cc1ccc(O)cc1)[C@@H](C)O)C(=O)N[C@@H](CO)C(=O)N[C@@H](CC(=O)O)C(=O)N[C@@H](Cc1ccc(O)cc1)C(=O)N[C@@H](CO)C(=O)N[C@H](C(=O)N[C@@](C)(CC(C)C)C(=O)N[C@@H](CC(C)C)C(=O)N[C@@H](CC(=O)O)C(=O)N[C@@H](CCCCN)C(=O)N[C@@H](CCCCNC(=O)COCCOCCNC(=O)COCCOCCNC(=O)CC[C@H](NC(=O)CCCCCCCCCCCCCCCCCCC(=O)O)C(=O)O)C(=O)N[C@@H](Cc1c[nH]cn1)C(=O)N[C@@H](CCC(N)=O)C(=O)NC(C)(C)C(=O)N[C@@H](CCC(=O)O)C(=O)N[C@@H](Cc1ccccc1)C(=O)N[C@H](C(=O)N[C@@H](CCC(=O)O)C(=O)N[C@@H](Cc1ccncc1)C(=O)N[C@@H](CC(C)C)C(=O)N[C@@H](CC(C)C)C(=O)N[C@@H](C)C(=O)N[C@H](C(=O)NCC(=O)N1CCC[C@H]1C(=O)N[C@@H](CO)C(=O)N[C@@H](CO)C(=O)NCC(=O)N[C@@H](C)C(=O)N1CCC[C@H]1C(=O)N1CCC[C@H]1C(=O)N1CCC[C@H]1C(=O)N[C@@H](CO)C(N)=O)[C@@H](C)O)C(C)C)[C@@H](C)CC [Example 58] (H-Y[Aib]EGTFISDYSI[αMeL]LDKK([AEEA-AEEA-γGlu-C20 diacid])HQ[Aib]EFVE[4Pal]LLATGPSSGAPPPS-NH2) | 0.0324 nM | 459 nM
CC[C@H](C)[C@H](NC(=O)[C@H](Cc1ccccc1)NC(=O)[C@@H](NC(=O)CNC(=O)[C@H](CCC(=O)O)NC(=O)C(C)(C)NC(=O)[C@@H](N)Cc1ccc(O)cc1)[C@@H](C)O)C(=O)N[C@@H](CO)C(=O)N[C@@H](CC(=O)O)C(=O)N[C@@H](Cc1ccc(O)cc1)C(=O)N[C@@H](CO)C(=O)N[C@H](C(=O)N[C@@](C)(CC(C)C)C(=O)N[C@@H](CC(C)C)C(=O)N[C@@H](CC(=O)O)C(=O)N[C@@H](CCCCN)C(=O)N[C@@H](CCCCNC(=O)COCCOCCNC(=O)COCCOCCNC(=O)CC[C@H](NC(=O)CCCCCCCCCCCCCCCCCCC(=O)O)C(=O)O)C(=O)N[C@@H](Cc1c[nH]cn1)C(=O)N[C@@H](CCC(N)=O)C(=O)NC(C)(C)C(=O)N[C@@H](CC(=O)O)C(=O)N[C@@H](Cc1ccccc1)C(=O)N[C@H](C(=O)N[C@@H](CCC(=O)O)C(=O)N[C@@H](Cc1ccc(O)cc1)C(=O)N[C@@H](CC(C)C)C(=O)N[C@@H](CC(C)C)C(=O)N[C@@H](CCC(=O)O)C(=O)N[C@@H](C)C(=O)NCC(=O)N1CCC[C@H]1C(=O)N[C@@H](CO)C(=O)N[C@@H](CO)C(=O)NCC(=O)N[C@@H](C)C(=O)N1CCC[C@H]1C(=O)N1CCC[C@H]1C(=O)N1CCC[C@H]1C(=O)N[C@@H](CO)C(N)=O)C(C)C)[C@@H](C)CC [Example 68] (H-Y[Aib]EGTFISDYSI[αMeL]LDKK([AEEA-AEEA-γGlu-C20 diacid])HQ[Aib]DFVEYLLEAGPSSGAPPPS-NH2) | 0.0948 nM | 421 nM
CC[C@H](C)[C@H](NC(=O)[C@H](CO)NC(=O)[C@H](Cc1ccc(O)cc1)NC(=O)[C@H](CC(=O)O)NC(=O)[C@H](CO)NC(=O)[C@@H](NC(=O)[C@](C)(Cc1ccccc1)NC(=O)[C@@H](NC(=O)CNC(=O)[C@H](CCC(=O)O)NC(=O)C(C)(C)NC(=O)[C@@H](N)Cc1ccc(O)cc1)[C@@H](C)O)[C@@H](C)CC)C(=O)N[C@@](C)(CC(C)C)C(=O)N[C@@H](CC(C)C)C(=O)N[C@@H](CC(=O)O)C(=O)N[C@@H](CCCCN)C(=O)N[C@@H](CCCCNC(=O)COCCOCCNC(=O)COCCOCCNC(=O)CC[C@H](NC(=O)CCCCCCCCCCCCCCCCCCC(=O)O)C(=O)O)C(=O)N[C@@H](Cc1c[nH]cn1)C(=O)N[C@@H](CCC(N)=O)C(=O)NC(C)(C)C(=O)N[C@@H](CCC(=O)O)C(=O)N[C@@H](Cc1ccccc1)C(=O)N[C@H](C(=O)N[C@@H](CCC(=O)O)C(=O)N[C@@H](Cc1ccncc1)C(=O)N[C@@H](CC(C)C)C(=O)N[C@@H](CC(C)C)C(=O)N[C@@H](C)C(=O)N[C@@H](C)C(=O)NCC(=O)N1CCC[C@H]1C(=O)N[C@@H](CO)C(=O)N[C@@H](CO)C(=O)NCC(=O)N[C@@H](C)C(=O)N1CCC[C@H]1C(=O)N1CCC[C@H]1C(=O)N1CCC[C@H]1C(=O)N[C@@H](CO)C(N)=O)C(C)C [Example 62] (H-Y[Aib]EGT[αMeF]ISDYSI[αMeL]LDKK([AEEA-AEEA-γGlu-C20 diacid])HQ[Aib]EFVE[4Pal]LLAAGPSSGAPPPS-NH2) | 0.0414 nM | 47.6 nM
